# Patent US20100136541A1, “IDENTIFICATION AND VERIFICATION OF METHYLATION MARKER SEQUENCES” (Siemens Healthcare Diagnostics Inc., priority 2003, published 2010)
# Key:
# Assay in all cases: Affymetrix expression profiling of treated and untreated cell lines (restoration of gene expression)
# Type in all cases: cell-based, human
# SCNN1B = conditions: cell line LS123, treated vs untreated
# Experimental: (§1) Twenty well characterized, microdissected samples of colorectal cancer tissue were obtained from consenting patients. A second set of twenty, microdissected samples of normal adjacent colon tissue were also obtained. Total RNA was extracted from these samples using RNeasy kits (QIAGEN, Valencia, Calif.) according to the manufacturer's instructions. Expression profiling was performed using the GeneChip expression arrays from Affymetrix (Santa Clara, Calif.). Reverse transcription, second-strand synthesis, and probe generation was accomplished by standard Affymetrix protocols. The Human Genome U133A GeneChip, which contains more than 15,000 substantiated human genes, was hybridized, washed, and scanned according to Affymetrix protocols. Changes in cellular mRNA levels in the cancerous tissues were compared with mRNA levels in the normal colon tissues. GeneSpring v4.2 (Silicon Genetics, Redwood City, Calif.) was used to normalize and scale results and compare gene expression levels in the cancer tissue relative to that in the normal tissue.
# (§2) Further support for the clinical importance of these sites comes from the changes seen in gene expression of the genes after treatment of cell lines with 5-aza-2′-deoxyctyidine. These values were obtained from Affymetrix expression profiling of treated and untreated cell lines using the procedure described above.
# CA4 = conditions: cell line LS174T, treated vs untreated
# Experimental: as §1, §2
# GPX3 = conditions: cell line LS174T, treated vs untreated
# Experimental: as §1, §2
smiles,measurement,setting,value
Nc1ncn([C@H]2C[C@H](O)[C@@H](CO)O2)c(=O)n1 [5-aza-2′-deoxycytidine],restoration of gene expression of SCNN1B after treatment,SCNN1B,4.1 fold
same,restoration of gene expression of CA4 after treatment,CA4,2.8 fold
same,restoration of gene expression of GPX3 after treatment,GPX3,8.5 fold
